From US20130072430A1, “METHODS FOR TREATMENT OR PROPHYLAXIS OF KIDNEY OR LIVER DYSFUNCTION” (NPS PHARMACEUTICALS, INC., priority 2010, published 2013)

System: Human patients with short bowel syndrome
Test: Example 1: kidney diagnostic biomarkers (urea nitrogen, creatinine, GFR) in short bowel syndrome patients, every four weeks for 24 weeks
Type: in vivo
Design: CREATININE (RATE BLANKED) Change from Baseline, Median / GFR, Median / GFR Change from Baseline, Median / UREA NITROGEN, Median / UREA NITROGEN Change from Baseline, Median: unit not given here
Details: for CREATININE (RATE BLANKED), Median: unit assumed
Experimental: Human patients with short bowel syndrome were divided into three groups: a control group (16 total individuals) to receive placebo, an experimental group (35 total individuals) to receive teduglutide at 0.05 mg/kg/day throughout the study, and an experimental group (32 total individuals) to receive teduglutide at 0.1 mg/kg/day throughout the study. Patients were treated by subcutaneous injection of placebo or the appropriate dose of teduglutide. As individuals with short bowel syndrome are likely to experience associated liver and kidney disease, known biomarkers of liver and kidney function were monitored every four weeks, for 24 weeks. The liver biomarkers tested included total bilirubin, ALT and AST and ALP. The kidney biomarkers tested included urea nitrogen, creatinine and GFR. Before administration of placebo or teduglutide, diagnostic biomarker levels were tested to establish a baseline for each individual.
To visualize the effect of GLP-2 on the levels of the diagnostic biomarkers, the average change from baseline was calculated for the placebo and teduglutide treated groups for each visit after a baseline was established. The average change from baseline of each group is depicted in FIGS. […]. The numerical figures for each diaanostic biomarker at each time point are depicted in Table 1.
The raw data for this sorting is reproduced in Table 2 below.

[1] = Week 4, range <−5%, teduglutide 0.05 mg/kg/day
[2] = Week 4, range <−5%, teduglutide 0.1 mg/kg/day
[3] = Week 4, range >5%, teduglutide 0.05 mg/kg/day
[4] = Week 4, range >5%, teduglutide 0.1 mg/kg/day
[5] = Week 4, range −5%<= and <=5%, teduglutide 0.05 mg/kg/day
[6] = Week 4, range −5%<= and <=5%, teduglutide 0.1 mg/kg/day
[7] = Week 8, range <−5%, teduglutide 0.05 mg/kg/day
[8] = Week 8, range <−5%, teduglutide 0.1 mg/kg/day
[9] = Week 8, range >5%, teduglutide 0.05 mg/kg/day
[10] = Week 8, range >5%, teduglutide 0.1 mg/kg/day
[11] = Week 8, range −5%<= and <=5%, teduglutide 0.05 mg/kg/day
[12] = Week 8, range −5%<= and <=5%, teduglutide 0.1 mg/kg/day
[13] = Week 12, range <−5%, teduglutide 0.05 mg/kg/day
[14] = Week 12, range <−5%, teduglutide 0.1 mg/kg/day
[15] = Week 12, range >5%, teduglutide 0.05 mg/kg/day

CC[C@H](C)[C@H](NC(=O)[C@H](Cc1ccccc1)NC(=O)[C@H](CC(=O)O)NC(=O)[C@H](CCCNC(=N)N)NC(=O)[C@H](C)NC(=O)[C@H](C)NC(=O)[C@H](CC(C)C)NC(=O)[C@H](CC(N)=O)NC(=O)[C@H](CC(=O)O)NC(=O)[C@H](CC(C)C)NC(=O)[C@@H](NC(=O)[C@@H](NC(=O)[C@H](CC(N)=O)NC(=O)[C@H](CCSC)NC(=O)[C@H](CCC(=O)O)NC(=O)[C@H](CC(=O)O)NC(=O)[C@H](CO)NC(=O)[C@H](Cc1ccccc1)NC(=O)[C@H](CO)NC(=O)CNC(=O)[C@H](CC(=O)O)NC(=O)CNC(=O)[C@@H](N)Cc1c[nH]cn1)[C@@H](C)O)[C@@H](C)CC)C(=O)N[C@@H](CC(N)=O)C(=O)N[C@@H](Cc1c[nH]c2ccccc12)C(=O)N[C@@H](CC(C)C)C(=O)N[C@H](C(=O)N[C@@H](CCC(N)=O)C(=O)N[C@H](C(=O)N[C@@H](CCCCN)C(=O)N[C@H](C(=O)N[C@H](C(=O)N[C@@H](CC(=O)O)C(=O)O)[C@@H](C)O)[C@@H](C)CC)[C@@H](C)O)[C@@H](C)CC [teduglutide]
GFR, Median (0.10 mg/kg/day, DW20): 76.1
UREA NITROGEN Change from Baseline, Mean (SD) (0.10 mg/kg/day, DW20): −0.0 (1.60)
UREA NITROGEN Change from Baseline, Median (0.10 mg/kg/day, DW20): −0.1
UREA NITROGEN, Mean (SD) (0.10 mg/kg/day, DW20): 6.3 (1.91)
UREA NITROGEN, Median (0.10 mg/kg/day, DW20): 6.0
CREATININE (RATE BLANKED), Median (0.10 mg/kg/day, DW20): 88 µmol/L
CREATININE (RATE BLANKED) Change from Baseline, Mean (SD) (0.10 mg/kg/day, DW24): −2.0 (13.18)
CREATININE (RATE BLANKED) Change from Baseline, Median (0.10 mg/kg/day, DW24): 0.0
CREATININE (RATE BLANKED), Mean (SD) (0.10 mg/kg/day, DW24): 82.0 (22.35)
GFR Change from Baseline, Mean (SD) (0.10 mg/kg/day, DW24): 4.6 (16.73)
GFR Change from Baseline, Median (0.10 mg/kg/day, DW24): 2.3
GFR, Mean (SD) (0.10 mg/kg/day, DW24): 82.4 (27.05)
GFR, Median (0.10 mg/kg/day, DW24): 81.1
UREA NITROGEN Change from Baseline, Mean (SD) (0.10 mg/kg/day, DW24): −0.2 (1.87)
UREA NITROGEN Change from Baseline, Median (0.10 mg/kg/day, DW24): 0.3
UREA NITROGEN, Mean (SD) (0.10 mg/kg/day, DW24): 6.1 (1.98)
UREA NITROGEN, Median (0.10 mg/kg/day, DW24): 5.9
CREATININE (RATE BLANKED), Median (0.10 mg/kg/day, DW24): 81 µmol/L
CREATININE (RATE BLANKED) change from baseline: patients in range, n(%) [1]: 7(20.0%)
GFR change from baseline: patients in range, n(%) [1]: 13(37.1%)
UREA NITROGEN change from baseline: patients in range, n(%) [1]: 16(45.7%)
CREATININE (RATE BLANKED) change from baseline: patients in range, n(%) [2]: 12(37.5%)
GFR change from baseline: patients in range, n(%) [2]: 7(21.9%)
UREA NITROGEN change from baseline: patients in range, n(%) [2]: 10(31.3%)
CREATININE (RATE BLANKED) change from baseline: patients in range, n(%) [3]: 14(40.0%)
GFR change from baseline: patients in range, n(%) [3]: 8(22.9%)
UREA NITROGEN change from baseline: patients in range, n(%) [3]: 7(20.0%)
CREATININE (RATE BLANKED) change from baseline: patients in range, n(%) [4]: 7(21.9%)
GFR change from baseline: patients in range, n(%) [4]: 14(43.8%)
UREA NITROGEN change from baseline: patients in range, n(%) [4]: 15(46.9%)
CREATININE (RATE BLANKED) change from baseline: patients in range, n(%) [5]: 9(25.7%)
GFR change from baseline: patients in range, n(%) [5]: 9(25.7%)
UREA NITROGEN change from baseline: patients in range, n(%) [5]: 7(20.0%)
CREATININE (RATE BLANKED) change from baseline: patients in range, n(%) [6]: 13(40.6%)
GFR change from baseline: patients in range, n(%) [6]: 11(34.4%)
UREA NITROGEN change from baseline: patients in range, n(%) [6]: 7(21.9%)
CREATININE (RATE BLANKED) change from baseline: patients in range, n(%) [7]: 11(31.4%)
GFR change from baseline: patients in range, n(%) [7]: 9(25.7%)
UREA NITROGEN change from baseline: patients in range, n(%) [7]: 14(40.0%)
CREATININE (RATE BLANKED) change from baseline: patients in range, n(%) [8]: 8(25.0%)
GFR change from baseline: patients in range, n(%) [8]: 9(28.1%)
UREA NITROGEN change from baseline: patients in range, n(%) [8]: 9(28.1%)
CREATININE (RATE BLANKED) change from baseline: patients in range, n(%) [9]: 10(28.6%)
GFR change from baseline: patients in range, n(%) [9]: 12(34.3%)
UREA NITROGEN change from baseline: patients in range, n(%) [9]: 10(28.6%)
CREATININE (RATE BLANKED) change from baseline: patients in range, n(%) [10]: 13(40.6%)
GFR change from baseline: patients in range, n(%) [10]: 9(28.1%)
UREA NITROGEN change from baseline: patients in range, n(%) [10]: 15(46.9%)
CREATININE (RATE BLANKED) change from baseline: patients in range, n(%) [11]: 8(22.9%)
GFR change from baseline: patients in range, n(%) [11]: 7(20.0%)
UREA NITROGEN change from baseline: patients in range, n(%) [11]: 5(14.3%)
CREATININE (RATE BLANKED) change from baseline: patients in range, n(%) [12]: 10(31.3%)
GFR change from baseline: patients in range, n(%) [12]: 13(40.6%)
UREA NITROGEN change from baseline: patients in range, n(%) [12]: 7(21.9%)
CREATININE (RATE BLANKED) change from baseline: patients in range, n(%) [13]: 7(20.0%)
GFR change from baseline: patients in range, n(%) [13]: 15(42.9%)
UREA NITROGEN change from baseline: patients in range, n(%) [13]: 17(48.6%)
CREATININE (RATE BLANKED) change from baseline: patients in range, n(%) [14]: 9(28.1%)
GFR change from baseline: patients in range, n(%) [14]: 11(34.4%)
UREA NITROGEN change from baseline: patients in range, n(%) [14]: 13(40.6%)
CREATININE (RATE BLANKED) change from baseline: patients in range, n(%) [15]: 16(45.7%)
GFR change from baseline: patients in range, n(%) [15]: 6(17.1%)
UREA NITROGEN change from baseline: patients in range, n(%) [15]: 6(17.1%)
